Data reported in PubChem BioAssay AID1963842 (Molecular Pharmacology Branch, DTP, NCI, 2024).

Tested on: 677734-321-R-J1-PDC complex spheroid viability
Test: Anticancer human tumor 677734-321-R-J1-PDC patient-derived soft tissue sarcoma cell line growth inhibition [POLQ]
Conditions: for IC50: curve of first compound; for viability, T/C: stronger effect = lower value
Summary of the method: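 Three-cell-type spheroids modelling solid tumor plus stroma served as the readout system; POL inhibitors were tested individually and in combination, concentration ranges set by clinical Cmax where known.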

[1] = second compound 0.0316 µM, first compound 0.00316 µM
[2] = second compound 0.0316 µM, first compound 0.01 µM
[3] = second compound 0.0316 µM, first compound 0.0316 µM
[4] = second compound 0.0316 µM, first compound 0.1 µM
[5] = second compound 0.0316 µM, first compound 0.316 µM
[6] = second compound 0.0316 µM, first compound 1 µM
[7] = second compound 0.1 µM, first compound 0.00316 µM
[8] = second compound 0.1 µM, first compound 0.01 µM
[9] = second compound 0.1 µM, first compound 0.0316 µM
[10] = second compound 0.1 µM, first compound 0.1 µM
[11] = second compound 0.1 µM, first compound 0.316 µM
[12] = second compound 0.1 µM, first compound 1 µM
[13] = second compound 0.316 µM, first compound 0.00316 µM
[14] = second compound 0.316 µM, first compound 0.01 µM
[15] = second compound 0.316 µM, first compound 0.0316 µM
[16] = second compound 0.316 µM, first compound 0.1 µM
[17] = second compound 0.316 µM, first compound 0.316 µM
[18] = second compound 0.316 µM, first compound 1 µM
[19] = second compound 1 µM, first compound 0.00316 µM
[20] = second compound 1 µM, first compound 0.01 µM
[21] = second compound 1 µM, first compound 0.0316 µM
[22] = second compound 1 µM, first compound 0.1 µM
[23] = second compound 1 µM, first compound 0.316 µM
[24] = second compound 1 µM, first compound 1 µM
[25] = second compound 3.16 µM, first compound 0.00316 µM
[26] = second compound 3.16 µM, first compound 0.01 µM
[27] = second compound 3.16 µM, first compound 0.0316 µM
[28] = second compound 3.16 µM, first compound 0.1 µM
[29] = second compound 3.16 µM, first compound 0.316 µM
[30] = second compound 3.16 µM, first compound 1 µM
[31] = second compound 10 µM, first compound 0.00316 µM
[32] = second compound 10 µM, first compound 0.01 µM
[33] = second compound 10 µM, first compound 0.0316 µM
[34] = second compound 10 µM, first compound 0.1 µM
[35] = second compound 10 µM, first compound 0.316 µM
[36] = second compound 10 µM, first compound 1 µM
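Also: spheroids exposed to compounds for one week.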
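For viability, T/C in this document: 100% = vehicle DMSO treated spheroids.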

In the case of `COc1cccc(OCCCN)c1-c1cc(Nc2cnc(C#N)cn2)n[nH]1` + Nc1ccc(C#CCN(C(=O)Cc2ncc(C(F)(F)F)cc2C(F)(F)F)c2ccc(F)cc2)nn1, the IC50 (second compound 0.0316 µM) is reported as 6.21 nM, the IC50 (second compound 0.1 µM) is reported as 4.6 nM and the IC50 (second compound 0.316 µM) is reported as 5.33 nM. It also gave an IC50 (second compound 1 µM) of 6.15 nM, an IC50 (second compound 3.16 µM) of 4.93 nM and an IC50 (second compound 10 µM) of 3.71 nM. The viability, T/C [1] was 101%, the viability, T/C [2] was 13.8% and the viability, T/C [3] was 5.82%. The viability, T/C [4] was 6.83%, the viability, T/C [5] was 7.28% and the viability, T/C [6] was 5.14%. The viability, T/C [7] was 67.2%, the viability, T/C [8] was 14.3% and the viability, T/C [9] was 6.58%. The viability, T/C [10] was 6.56%, the viability, T/C [11] was 8.96% and the viability, T/C [12] was 3.87%. For the same molecule, the viability, T/C [13] was 77%, the viability, T/C [14] was 17.7% and the viability, T/C [15] was 5.86%. The viability, T/C [16] was 9.23%, the viability, T/C [17] was 6.18% and the viability, T/C [18] was 5.17%. For the same molecule, the viability, T/C [19] was 83.6%, the viability, T/C [20] was 25.5% and the viability, T/C [21] was 6%. For the same molecule, the viability, T/C [22] was 6.97%, the viability, T/C [23] was 6.56% and the viability, T/C [24] was 5.02%. It also gave a viability, T/C [25] of 72.7%, a viability, T/C [26] of 13.8% and a viability, T/C [27] of 9%. For the same molecule, the viability, T/C [28] was 6.22%, the viability, T/C [29] was 7.97% and the viability, T/C [30] was 5.64%. It also gave a viability, T/C [31] of 56.6%, a viability, T/C [32] of 9.16% and a viability, T/C [33] of 6.91%. It also gave a viability, T/C [34] of 7.72%, a viability, T/C [35] of 6.82% and a viability, T/C [36] of 5.03%.
`Cn1ncnc1[C@H]1c2n[nH]c(=O)c3cc(F)cc(c23)N[C@@H]1c1ccc(F)cc1` + Nc1ccc(C#CCN(C(=O)Cc2ncc(C(F)(F)F)cc2C(F)(F)F)c2ccc(F)cc2)nn1 was tested, and the IC50 (second compound 0.0316 µM) was greater than 100 nM, the IC50 (second compound 0.1 µM) was greater than 100 nM and the IC50 (second compound 0.316 µM) was greater than 100 nM. The IC50 (second compound 1 µM) was greater than 100 nM, the IC50 (second compound 3.16 µM) was greater than 100 nM and the IC50 (second compound 10 µM) was greater than 100 nM. The viability, T/C (second compound 0.0316 µM, first compound 0.000316 µM) was 79.4%, the viability, T/C (second compound 0.0316 µM, first compound 0.001 µM) was 105% and the viability, T/C [1] was 86.2%. It also gave a viability, T/C [2] of 93.1%, a viability, T/C [3] of 99.6% and a viability, T/C [4] of 79.8%. The viability, T/C (second compound 0.1 µM, first compound 0.000316 µM) was 92.4%, the viability, T/C (second compound 0.1 µM, first compound 0.001 µM) was 89.2% and the viability, T/C [7] was 97.3%. For the same molecule, the viability, T/C [8] was 100%, the viability, T/C [9] was 95% and the viability, T/C [10] was 88.7%. The viability, T/C (second compound 0.316 µM, first compound 0.000316 µM) was 113%, the viability, T/C (second compound 0.316 µM, first compound 0.001 µM) was 111% and the viability, T/C [13] was 109%. For the same molecule, the viability, T/C [14] was 97.4%, the viability, T/C [15] was 75.2% and the viability, T/C [16] was 72.8%. It also gave a viability, T/C (second compound 1 µM, first compound 0.000316 µM) of 112%, a viability, T/C (second compound 1 µM, first compound 0.001 µM) of 97.8% and a viability, T/C [19] of 93.3%. The viability, T/C [20] was 95.2%, the viability, T/C [21] was 85.8% and the viability, T/C [22] was 68.1%. The viability, T/C (second compound 3.16 µM, first compound 0.000316 µM) was 108%, the viability, T/C (second compound 3.16 µM, first compound 0.001 µM) was 95.2% and the viability, T/C [25] was 100%. For the same molecule, the viability, T/C [26] was 98%, the viability, T/C [27] was 99.7% and the viability, T/C [28] was 93.7%. It also gave a viability, T/C (second compound 10 µM, first compound 0.000316 µM) of 115%, a viability, T/C (second compound 10 µM, first compound 0.001 µM) of 95.9% and a viability, T/C [31] of 101%. The viability, T/C [32] was 94.1%, the viability, T/C [33] was 97.9% and the viability, T/C [34] was 87.2%.
In the case of `O=C(c1cc(Cc2n[nH]c(=O)c3ccccc23)ccc1F)N1CCN(C(=O)C2CC2)CC1` + Nc1ccc(C#CCN(C(=O)Cc2ncc(C(F)(F)F)cc2C(F)(F)F)c2ccc(F)cc2)nn1, the IC50 (second compound 0.0316 µM) is reported as greater than 10000 nM, the IC50 (second compound 0.1 µM) is reported as greater than 10000 nM and the IC50 (second compound 0.316 µM) is reported as greater than 10000 nM. The IC50 (second compound 1 µM) was greater than 10000 nM, the IC50 (second compound 3.16 µM) was greater than 10000 nM and the IC50 (second compound 10 µM) was greater than 10000 nM. The viability, T/C [3] was 97%, the viability, T/C [4] was 122% and the viability, T/C [5] was 101%. For the same molecule, the viability, T/C [6] was 105%, the viability, T/C (second compound 0.0316 µM, first compound 3.16 µM) was 88.1% and the viability, T/C (second compound 0.0316 µM, first compound 10 µM) was 63.3%. It also gave a viability, T/C [9] of 110%, a viability, T/C [10] of 102% and a viability, T/C [11] of 98.6%. It also gave a viability, T/C [12] of 110%, a viability, T/C (second compound 0.1 µM, first compound 3.16 µM) of 83.8% and a viability, T/C (second compound 0.1 µM, first compound 10 µM) of 71.2%. For the same molecule, the viability, T/C [15] was 110%, the viability, T/C [16] was 116% and the viability, T/C [17] was 104%. It also gave a viability, T/C [18] of 93.2%, a viability, T/C (second compound 0.316 µM, first compound 3.16 µM) of 96.1% and a viability, T/C (second compound 0.316 µM, first compound 10 µM) of 68.8%. For the same molecule, the viability, T/C [21] was 109%, the viability, T/C [22] was 108% and the viability, T/C [23] was 96.5%. The viability, T/C [24] was 93%, the viability, T/C (second compound 1 µM, first compound 3.16 µM) was 92.7% and the viability, T/C (second compound 1 µM, first compound 10 µM) was 50.3%. It also gave a viability, T/C [27] of 123%, a viability, T/C [28] of 110% and a viability, T/C [29] of 89.4%. The viability, T/C [30] was 92.8%, the viability, T/C (second compound 3.16 µM, first compound 3.16 µM) was 90.9% and the viability, T/C (second compound 3.16 µM, first compound 10 µM) was 65.3%. The viability, T/C [33] was 109%, the viability, T/C [34] was 103% and the viability, T/C [35] was 103%. It also gave a viability, T/C [36] of 105%, a viability, T/C (second compound 10 µM, first compound 3.16 µM) of 91.9% and a viability, T/C (second compound 10 µM, first compound 10 µM) of 66.8%.
